According to patent publication US20130041005A1, “PHARMACEUTICAL COMPOSITIONS COMPRISING NEUROPILIN INHIBITORS, AND THEIR USE FOR THE PREVENTION AND/OR TREATMENT OF ANGIOGENIC DISORDERS AND CANCERS” (TRAGEX PHARMA, priority 2011, published 2013):

Assays:
[1] = test system: Panc-10.5; experiment: WST-1 proliferation assay, Panc-10.5; assay type: cell-based; details: Homo sapiens; for inhibition at 0.1 µM: PANC - 10.5, 0.1 μM; for inhibition at 0.5 µM: PANC - 10.5, 0.5 μM; for inhibition at 1 µM: PANC - 10.5, 1 μM; for IC50: Pancreas Panc-10.5, 72 h, read-out: Anti-proliferative activity IC50 (μM) ± SD
From the text: Several cancer cell lines were used: breast cancer cells (MDA-MB-231 (ATTCC® Number HTB-26™), MDA-MB-436 (ATTCC® Number HTB-130™), MDA-MB-438, BT-474 (ATTCC® Number HTB-20™)); cervical cancer cells (HeLa (ATTCC® Number CCL-2™)); colon cancer cells (HCT-116 (ATTCC® Number CCL-247™) and HT-29 (ATTCC® Number HTB-38™)); osteosarcoma cells (U2OS (ATTCC® Number HTB-96™)); pancreas cancer cells (MIA PaCa-2 (ATTCC® Number CRL-1420™) and Panc-10.5 (ATTCC® Number CRL-2547™)); prostate cancer cells (PC-3 (ATTCC® Number CRL-1435™) and LNCaP (ATTCC® Number CRL-1740™)); brain cancer cells (U87 glioblastoma (ATTCC® Number HTB-14™) and SH-SYSY neuroblastoma (ATTCC® Number CRL-2266™)).
All the cancer cell lines were maintained in cultured in DMEM GlutaMAX™ (GIBCO Invitrogen, France, cat no 31966047) enhanced with 10% foetal bovine serum (GIBCO Invitrogen, France, cat no 10270-106) and 1% penicillin G/streptomycin (GIBCO Invitrogen, France, cat no 15140-122). Only Panc-10.5 cells were cultivated in RPMI 1640 medium (Gibco) supplemented with 2 mM L-glutamine, 1.5 g/L sodium bicarbonate, 4.5 g/L glucose, 10 mM HEPES, 1 mM sodium pyruvate, 10 Units/ml human insulin, […] (SVF): 15% (75 ml in 500 ml of medium).
Cells were grown as subconfluent monolayer and cultured in 75 cm^2 flasks at 37° C., 5% CO2 in a humidified atmosphere, and medium was changed every two days. Only cells from passages 2-6 were used for the experiments.
After observation of cells under the microscope, old media were removed and the adherent cells washed gently twice with PBS (Phosphate Buffer Saline, —Ca^2+, —Mg^2+, Lonza cat no: 17-512F/12). All cells were detached with 3 ml of trypsin/EDTA (chelator of calcium and magnesium ions) (Lonza), incubated for 5 min at 37° C., and examined using a microscope to ensure that the cells were detached and floating. Then, 3 ml TNS (Trypsin Neutralizing Solution, Lonza, France, cat no CC-5002) or of culture medium were added to inactivate the trypsin, and the cell suspension was transferred in a falcon and centrifuged for 7 min at 1400 rpm. The supernatant was removed and the cell pellet resuspended in […] of culture medium. 50 μl of this solution were transferred in 20 μl of isotonic solution and the cells were counted by count cellular (Beckman Coulter). At day 0, 200 μl of cellular suspension (3.10^3 cells/well for the HUVEC cells, breast cancer cells (MDA-MB-231 1.10^4 cells/well, MDA-MB-436 1.10^4 cells/well, MDA-MB-438 2.10^4 cells/well, BT-474 2.5.10^4 cells/well); cervical cancer cells (HeLa 5.000 cells/well); colon cancer cells (HCT-116 5.10^3 cells/well, HCT-29 1.1.10^4 cells/well); osteosarcoma cells (U2OS 8.10^3 cells/well); pancreas cancer cells (MIA PaCa-2 5.10^3 cells/well, Panc-10.5 1.5.10^4 cells/well); prostate cancer cells (PC-3 4.10^3 cells/well, LNCaP 2.10^4 cells/well); brain cancer cells (U87 5.10^3 cells/well, SH-SYSY 8.10^4 cells/well)) were then plated on 96 well plates and incubated at 37° C. in a humidified atmosphere of 5% CO2 for 24 h.
At day 1, the compounds 1 or 2 of the invention were added at increasing concentrations (0.1-10 μM) in the wells and plates were incubated at 37° C. in a humidified atmosphere of 5% CO2 for 72 h.
The cell proliferation WST-1 assay is a colorimetric assay for the quantification of cell proliferation and viability, based on the enzymatic cleavage of the tetrazolium salt WST-1 added to the culture medium, to a water soluble colored formazan dye, detected by absorbance at 450 nm, by mitochondrial succinate-tetrazolium reductase in viable cells. An augmentation in enzyme activity will then lead to an increase in the amount of formazan dye formed, which directly correlates to the number of metabolically active cells in the culture.
After an incubation period of 72 h, at day 4, were prepared the 19 ml medium with reagent WST-1 1 ml ([…]). The medium was removed from the 96 microplate and 200 μl of solution WST-1/medium were added for each well. […]

[2] = biological target: T1, NRP-2 (Homo sapiens, UniProt O60462); experiment: ELISA inhibition of VEGF binding to NRP-2
T1 construct: fused on or other part: Possibly an Fc or His tag on the purchased soluble ectodomain
T1 sequence (O60462 whole entry, the tested form may be a part): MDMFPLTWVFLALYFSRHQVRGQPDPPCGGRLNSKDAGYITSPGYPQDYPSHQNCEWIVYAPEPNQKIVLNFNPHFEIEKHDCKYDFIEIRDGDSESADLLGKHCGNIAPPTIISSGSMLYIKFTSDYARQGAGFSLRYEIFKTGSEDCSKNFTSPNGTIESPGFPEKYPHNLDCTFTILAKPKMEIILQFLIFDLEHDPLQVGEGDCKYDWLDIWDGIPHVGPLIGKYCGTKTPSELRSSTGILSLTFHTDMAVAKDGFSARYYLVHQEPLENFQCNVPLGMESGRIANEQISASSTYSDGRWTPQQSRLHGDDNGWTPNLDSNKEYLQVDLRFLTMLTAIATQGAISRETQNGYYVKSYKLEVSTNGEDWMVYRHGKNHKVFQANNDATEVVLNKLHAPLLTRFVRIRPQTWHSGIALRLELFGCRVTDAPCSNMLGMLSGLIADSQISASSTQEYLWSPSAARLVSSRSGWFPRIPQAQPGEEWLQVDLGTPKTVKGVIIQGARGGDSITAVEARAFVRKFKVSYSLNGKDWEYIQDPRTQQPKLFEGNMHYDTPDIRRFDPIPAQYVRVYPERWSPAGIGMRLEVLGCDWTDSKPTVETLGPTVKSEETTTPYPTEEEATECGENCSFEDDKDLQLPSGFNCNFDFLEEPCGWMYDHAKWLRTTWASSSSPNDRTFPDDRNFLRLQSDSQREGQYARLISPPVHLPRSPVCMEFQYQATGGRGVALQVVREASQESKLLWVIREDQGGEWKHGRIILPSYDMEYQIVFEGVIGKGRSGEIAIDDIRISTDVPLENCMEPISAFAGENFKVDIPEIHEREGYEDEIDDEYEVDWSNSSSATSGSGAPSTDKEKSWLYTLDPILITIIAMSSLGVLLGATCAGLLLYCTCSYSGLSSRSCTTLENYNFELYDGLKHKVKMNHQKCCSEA
Description: Elisa test was performed covering a 96-well microplate (BD Biosciences, France, cat no 353046) surface with 100 μl of 1×PBS, pH 7.4 with Ca^2+ and Mg^2+, (Lonza, France, cat no 17-513F/12) solution containing 0.2 μg/ml of VEGF-R1 (R&D Systems, UK, cat no 321-FL-050/CF) or 2 μg/ml of NRP-1 (R&D Systems, UK, cat no 3870-N1-025) or NRP-2 (R&D Systems, UK, cat no 321-FL). The plate was sealed and incubated overnight at 4° C. After 3 washes with 200 μl of 1×PBS 0.5% (v/v) Tween 20 (Sigma, France, cat no 34078) (Buffer A), the plate was blocked by adding 200 μl of 1×PBS with 0.5% (w/v) BSA (Eurobio, France, cat no GAUBSA01-65) and agitated at 37° C. for 2 h. After washing five times with Buffer A, 50 μl/well of the compounds of the invention at 10 μM were added for the specific signal and 50 μl/well for the non-specific and max binding signal and incubated at 37° C. for 1 hour, shacking. […] Luminescence was quantified with an EnVision™ 2101 Multilabel reader (Perkin Elmer, USA) and the data analyzed by Wallac Envision manager software. […] Non-specific binding is defined as the signal measured in the absence of receptor coated on the microplate. The specific binding was calculated as the difference between total binding and non-specific binding. The percentage of inhibition was calculated as following: […]

| Compound | inhibition at 0.1 µM [1] [%] | inhibition at 0.5 µM [1] [%] | inhibition at 1 µM [1] [%] | IC50 [1] [µM] | IC50 [2] [µM] |
| --- | --- | --- | --- | --- | --- |
| Cc1ccc(-c2nc3ccccc3[nH]2)cc1NC(=S)NC(=O)c1ccc2c(c1)OCCO2 [Compound 1, N-[5-(1H-benzimidazol-2-yl)-2-methylphenyl]-N′-(2,3-dihydro-1,4-benzodioxin-6-ylcarbonyl)thiourea] | 21 | 44 | 56 | 1 | 42 ± 3.15 |
| O=C(NC(=S)Nc1cccc(-c2nc3ccccc3[nH]2)c1)c1ccc2c(c1)OCCO2 [Compound 2, N-[3-(1H-benzimidazol-2-yl)phenyl]-N′-(2,3-dihydro-1,4-benzodioxin-6-ylcarbonyl)thiourea] | 51 | 62 | 65 | 0.1 ± 0.09 | 35 ± 5.23 |
